Reference: ChEMBL document CHEMBL3785006, “Discovery of 2-Indole-acylsulfonamide Myeloid Cell Leukemia 1 (Mcl-1) Inhibitors Using Fragment-Based Methods” (J Med Chem, 2016)

Target: Induced myeloid leukemia cell differentiation protein Mcl-1 (Homo sapiens, UniProt Q07820)
Sequence (Q07820 whole entry): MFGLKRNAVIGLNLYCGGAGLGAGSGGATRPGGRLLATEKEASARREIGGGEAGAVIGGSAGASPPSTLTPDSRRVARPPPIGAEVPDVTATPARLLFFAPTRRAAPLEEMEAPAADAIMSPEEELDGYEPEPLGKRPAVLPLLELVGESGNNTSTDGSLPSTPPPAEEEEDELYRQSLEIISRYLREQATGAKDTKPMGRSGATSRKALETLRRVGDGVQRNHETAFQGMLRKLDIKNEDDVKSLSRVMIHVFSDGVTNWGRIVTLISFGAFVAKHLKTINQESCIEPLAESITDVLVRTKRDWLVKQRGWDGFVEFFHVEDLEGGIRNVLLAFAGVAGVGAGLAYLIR

Compound: Oc1ccccc1-c1cc(C(F)(F)C(F)(F)F)[nH]n1
- Kd: 1500 µM
